Tests used:
[1] = test system: Pyricularia oryzae; type: cell-based; conditions: 125 ppm active compound, microtiter plate, absorption at 405 nm on day 7 after inoculation, relative to active compound-free control
[2] = test system: Phytophthora infestans; type: in vivo; conditions: 250 ppm active compound, potted tomato plants, sprayed 1 day before infection, assessed after 6 days; untreated plants 70% infected

Row | Compound | relative growth [1] | infection [2]
1 | CC(=O)Nc1c(-c2c(F)cc(F)cc2F)c(Cl)nc2ncnn12 [Example 4, N-[5-Chloro-6-(2,4,6-trifluorophenyl)(1,2,4-triazolo[1,5-a]pyrimidin-7-yl)]acetamide] | less than or equal to 1% | 
2 | CCC(=O)Nc1c(-c2c(F)cc(F)cc2F)c(Cl)nc2ncnn12 [Example 5, N-[5-chloro-6-(2,4,6-trifluorophenyl)(1,2,4-triazolo-[1,5-a]pyrimidin-7-yl)]propionamide] |  | less than or equal to 15%

Source: patent publication US20070197389A1 (priority 2004, published 2007)
